Data: the supplement of paper PMC10307832

How the values were obtained:
Test in all cases: relative viability (nuclei count vs DMSO), 5 days (fraction); higher = more cells survive
[1] = compound: C[C@@]1(C(=O)Nc2ccc(F)nc2)CCCN1c1nc(Nc2cc(C3CC3)n[nH]2)c2cccn2n1 + C[C@]1(O)C[C@@H](c2nc(-c3ccc4ccc(-c5ccccc5)nc4c3)c3c(N)nccn32)C1 [Linsitinib] (partner 1 µM)
Method in brief: (§1)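 Lung cancer cell lines were seeded in 1536-well plates and dosed by pin tool the next day, with either a single drug or a fixed anchor-drug dose combined with five library-drug doses (not always all listed) spaced in √10 steps. Five days later, one step fixed the cells and stained their nuclei (final 0.05% Triton X-100, 1% formaldehyde, 1 ug/ml Hoechst), and nuclei were counted on 4× images. Relative viability is the nuclei count in treated wells divided by the count in vehicle wells, and each value is the median of duplicate plates.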

Motesanib + Navitoclax = compound: CC1(C)CNc2cc(NC(=O)c3cccnc3NCc3ccncc3)ccc21 [Motesanib] + CC1(C)CCC(c2ccc(Cl)cc2)=C(CN2CCN(c3ccc(C(=O)NS(=O)(=O)c4ccc(N[C@H](CCN5CCOCC5)CSc5ccccc5)c(S(=O)(=O)C(F)(F)F)c4)cc3)CC2)C1 [Navitoclax] (partner 0.5 µM)
Method in brief: as §1

Motesanib + Palbociclib = compound: CC1(C)CNc2cc(NC(=O)c3cccnc3NCc3ccncc3)ccc21 [Motesanib] + CC(=O)c1c(C)c2cnc(Nc3ccc(N4CCNCC4)cn3)nc2n(C2CCCC2)c1=O [Palbociclib] (partner 0.5 µM)
Method in brief: as §1

[2] = compound: C[C@@]1(C(=O)Nc2ccc(F)nc2)CCCN1c1nc(Nc2cc(C3CC3)n[nH]2)c2cccn2n1 + C[C@@H](Oc1cc(-c2cnn(C3CCNCC3)c2)cnc1N)c1c(Cl)ccc(F)c1Cl [Crizotinib] (partner 1 µM)
Method in brief: as §1

Cell Line | relative viability ([1]; first compound 0.04 µM) | relative viability ([1]; first compound 0.1265 µM) | relative viability ([1]; first compound 0.4 µM) | relative viability ([1]; first compound 1.265 µM) | relative viability (Motesanib + Navitoclax; first compound 0.01 µM) | relative viability (Motesanib + Navitoclax; first compound 0.03162 µM) | relative viability (Motesanib + Navitoclax; first compound 0.1 µM) | relative viability (Motesanib + Navitoclax; first compound 0.3162 µM) | relative viability (Motesanib + Navitoclax; first compound 1 µM) | relative viability (Motesanib + Palbociclib; first compound 0.01 µM) | relative viability (Motesanib + Palbociclib; first compound 0.03162 µM) | relative viability (Motesanib + Palbociclib; first compound 0.1 µM) | relative viability (Motesanib + Palbociclib; first compound 0.3162 µM) | relative viability (Motesanib + Palbociclib; first compound 1 µM) | relative viability ([2]; first compound 0.04 µM) | relative viability ([2]; first compound 0.1265 µM) | relative viability ([2]; first compound 0.4 µM) | relative viability ([2]; first compound 1.265 µM)
201T | 0.97 | 0.97 | 0.908 | 1.04 | 1.2 | 1.21 | 1.21 | 1.19 | 1.2 | 0.34 | 0.343 | 0.358 | 0.371 | 0.373 | 0.993 | 0.943 | 0.933 | 0.973
A549 | 0.681 | 0.571 | 0.401 | 0.79 | 1.19 | 1.23 | 1.17 | 1.34 | 1.32 |  |  |  |  |  | 0.52 | 0.402 | 0.248 | 0.089
A-427 | 1.11 | 1.05 | 1.08 | 1.16 | 1.01 | 0.989 | 1.06 | 1.02 | 1.02 | 0.527 | 0.506 | 0.512 | 0.526 | 0.549 | 0.853 | 0.848 | 0.674 | 0.882
ABC-1 | 1.05 | 0.711 | 0.619 | 0.777 |  |  |  |  |  | 0.633 | 0.541 | 0.7 | 0.938 | 0.763 | 1.01 | 0.695 | 0.7 | 0.272
BEN | 0.895 | 1.24 | 0.766 | 1.04 | 0.0507 | 0.0585 | 0.0627 | 0.0938 | 0.0672 | 0.458 | 0.457 | 0.478 | 0.481 | 0.476 | 0.773 | 1.19 | 0.59 | 0.999
CAL-12T | 0.827 | 0.849 | 0.78 | 0.817 | 1.34 | 1.47 | 1.3 | 1.24 | 1.28 | 0.418 | 0.524 | 0.347 | 0.415 | 0.563 | 0.509 | 0.487 | 0.346 | 0.161
COR-L23 | 0.818 | 0.855 | 0.768 | 0.705 | 1.01 | 0.936 | 1.08 | 1.06 | 0.972 | 0.297 | 0.26 | 0.272 | 0.273 | 0.32 | 0.737 | 0.653 | 0.494 | 0.333
COR-L 105 | 0.796 | 0.808 | 0.627 | 0.946 | 1.01 | 0.805 | 0.853 | 0.818 | 0.851 | 0.393 | 0.45 | 0.401 | 0.438 | 0.448 | 0.805 | 0.454 | 0.5 | 0.456
Calu-6 | 0.91 | 0.895 | 0.833 | 0.859 | 0.877 | 0.748 | 0.852 | 0.758 | 0.76 |  |  |  |  |  | 0.881 | 0.743 | 0.597 | 0.491
ChaGo-K-1 |  |  |  |  |  | 0.691 | 0.862 | 1.03 | 1.21 | 0.899 | 0.881 | 0.976 | 0.856 | 0.908 | 0.989 | 0.644 | 1.01 | 0.791
